Laboratory results reported in ChEMBL document CHEMBL1155835 (J Med Chem, 2008).

Experiments:
[1] = Inhibition of hamster liver ALDH2; design: species or system Cricetinae
[2] = biological target: T1, Aldehyde dehydrogenase, mitochondrial (Homo sapiens, UniProt P05091); assay: Inhibition of human recombinant ALDH2
T1 sequence (P05091 whole entry): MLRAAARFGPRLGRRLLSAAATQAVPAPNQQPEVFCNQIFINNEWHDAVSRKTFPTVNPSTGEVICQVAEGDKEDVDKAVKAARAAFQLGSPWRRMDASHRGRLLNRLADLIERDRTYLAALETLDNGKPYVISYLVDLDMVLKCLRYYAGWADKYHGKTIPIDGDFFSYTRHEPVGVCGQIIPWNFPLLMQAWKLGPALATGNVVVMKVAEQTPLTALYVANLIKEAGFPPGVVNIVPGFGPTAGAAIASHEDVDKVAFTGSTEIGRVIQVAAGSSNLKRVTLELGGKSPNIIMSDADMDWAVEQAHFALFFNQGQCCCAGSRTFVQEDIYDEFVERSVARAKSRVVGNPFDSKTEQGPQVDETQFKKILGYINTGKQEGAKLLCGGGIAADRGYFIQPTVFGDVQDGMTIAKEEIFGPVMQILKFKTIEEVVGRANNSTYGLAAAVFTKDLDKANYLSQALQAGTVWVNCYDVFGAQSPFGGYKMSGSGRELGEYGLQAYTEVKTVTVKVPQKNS

| Structure (SMILES) | IC50 [1] [nM] | Ki [2] [nM] |
| --- | --- | --- |
| CCCCCCOc1ccc2c(=O)c(-c3ccc(O)cc3)coc2c1 | 1500 | – |
| O=C(O)CCCCCCCCCOc1ccc2c(=O)c(-c3ccc(O)cc3)coc2c1 | 50 | – |
| O=C(O)CCCCOc1ccc2c(=O)c(-c3ccc(O)cc3)coc2c1 | 100 | – |
| CCCCCCCCCCCCOc1ccc2c(=O)c(-c3ccc(O)cc3)coc2c1 | > 9000 | – |
| O=c1c(-c2ccc(O)cc2)coc2cc(OCCOCCOCCO)ccc12 | 40 | – |
| O=C(O)CCCCCCCOc1ccc2c(=O)c(-c3ccc(O)cc3)coc2c1 | 40 | – |
| CCOc1ccc2c(=O)c(-c3ccc(O)cc3)coc2c1 | 80 | – |
| O=C(O)CCCCCCCCCCCOc1ccc2c(=O)c(-c3ccc(O)cc3)coc2c1 | 130 | – |
| O=C(O)COc1ccc2c(=O)c(-c3ccc(O)cc3)coc2c1 | 1200 | – |
| O=c1c(-c2ccc(O)cc2)coc2cc(O)ccc12 [DAIDZEIN] | 9000 | – |
| COc1cc(O)c2c(=O)c(-c3ccc(O)cc3)coc2c1 [PRUNETIN] | – | 450 |
